Data published in patent EP0346744A1, “Condensed diazepinones, process for their preparation and medicaments containing them” (Dr. Karl Thomae GmbH, priority 1988, dated 1989).
Counter-ions that a name gives are not always drawn.

Legend:
M2 = assay: Inhibition of vagal-stimulation bradycardia in the rat (M1/M2 selectivity, heart); format: in vivo, Ratte
Protocol: (§1) 1. M,- M2-Selektivität an der Ratte
(§2) Die angewandte Methode wurde von Hammer und Giachetti (Life Sciences 31, 2991-2998 (1982)) beschrieben. 5 Minuten nach intravenöser Injektion steigender Dosen der Substanz wurden entweder der rechte Vagus elektrisch stimuliert (Frequenz: 25 Hz; Pulsbreite: 2ms; Reizdauer: 30s; Voltzahl: supramaximal) oder 0,3 mg kg McN-A-343 in männliche THOM-Ratten intravenös injiziert. Die durch Vagusstimulation hervorgeru fene Bradykardie und der durch McN-A-343 verursachte Blutdruckanstieg wurden bestimmt. Die Dosis der Substanzen, die entweder die vagale Bradykardie (M2) oder den Blutdruckanstieg (Mi) um 50% verminderte, wurde graphisch ermittelt. Ergebnisse siehe Tabelle II.

M1 = assay: Inhibition of McN-A-343-induced blood pressure rise in the rat (M1/M2 selectivity); format: in vivo, Ratte
Protocol: as §1, §2

Herzfrequenz = assay: Inhibition of acetylcholine effect on heart rate of the guinea pig; format: in vivo, Meerschweinchen; details: for ED50: Cavia porcellus, 5 min, anaesthetised guinea pig, 10 µg/kg acetylcholine 5 min after test substance, heart rate by ECG
Protocol: (§3) 3. Hemmung der Acetylcholinwirkung auf Blase, Bronchien und Herzfrequenz des Meerschweinchens
(§4) Am narkotisierten Meerschweinchen wurden 5 Minuten nach Gabe der Prüfsubstanz 10 µg/kg Acetylcholin intravenös als auch gleichzeitig intraarteriell injiziert. Dabei wurde die Herzfrequenz durch extrakorporale Ableitung des EKG, der Ausatemwiderstand nach Konzett-Rößler und die Kontraktion der freigelegten Harnblase direkt registriert. Für die Hemmung der Acetylcholinwirkung an den untersuchten Organen wurden Dosis-Wirkungskurven aufgenommen und daraus -log EDso-Werte bestimmt. Ergebnisse siehe Tabelle III.

Bronchien = assay: Inhibition of acetylcholine effect on bronchi of the guinea pig; format: in vivo, Meerschweinchen; details: for ED50: Cavia porcellus, 5 min, anaesthetised guinea pig, 10 µg/kg acetylcholine 5 min after test substance, expiratory resistance (Konzett-Rößler), read-out: -log ED50 Bronchien (converted)
Protocol: as §3, §4

Blase = assay: Inhibition of acetylcholine effect on bladder of the guinea pig; format: in vivo, Meerschweinchen; details: for ED50: Cavia porcellus, 5 min, anaesthetised guinea pig, 10 µg/kg acetylcholine 5 min after test substance, contraction of exposed urinary bladder, read-out: -log ED50 Blase (converted)
Protocol: as §3, §4

Speichelsekretion = assay: Inhibition of pilocarpine-induced salivation in the rat; format: in vivo, Ratte; details: iv; urethane-anaesthetised rat, i.v.; salivation induced by 2 mg/kg pilocarpine s.c.; dose reducing saliva volume by 50%; read-out: -log ED50 Salivation (converted)
Protocol: 2. Speichselsekretionshemmende Wirkung an der Ratte
Nach Lavy und Mulder (Arch. int. Pharmacodyn. 178. 437-445, (1969)) erhielten mit 1,2 glkg Urethan narkotisierte männliche THOM-Ratten steigende Dosen der Substanz i.v.. Die Speichelsekretion wurde durch s.c. Gabe von 2 mg kg Pilocarpin ausgelöst. Der Speichel wurde mit Fließpapier aufgesaugt, die von ihm eingenommene Fläche alle 5 Minuten planimetrisch bestimmt. Die Dosis der Substanz, die das Speichelvolumen um 50% verminderte, wurde graphisch ermittelt. Ergebnisse siehe Tabelle II.

[1] = rat, i.v., 5 min before electrical stimulation of the right vagus, dose reducing vagal bradycardia (M2) by 50%
[2] = rat, i.v., 5 min before 0,3 mg/kg McN-A-343 i.v., dose reducing blood pressure rise (M1) by 50%

| SMILES | -log ED50 Herz (M2; in vivo, iv) | -log ED50 Blutdruck (M1; in vivo) | -log ED50 Herz (Herzfrequenz; in vivo) | -log ED50 Bronchien (Bronchien; in vivo) | -log ED50 Blase (Blase; in vivo) | -log ED50 Herz (M2; [1]) | ED50 (Speichelsekretion) [µmol/kg] | ED50 (Herzfrequenz) [µmol/kg] | ED50 (Bronchien) [µmol/kg] | ED50 (Blase) [µmol/kg] | -log ED50 Blutdruck (M1; [2]) |
| --- | --- | --- | --- | --- | --- | --- | --- | --- | --- | --- | --- |
| CN1C2CCC1CC(OC(=O)C(CO)c1ccccc1)C2 (racemic) [G, Atropin, reference compound] | 7,94 Mkg^-1 | 7,34 Mkg^-1 | 7,70 Molkg^-1 | 7,96 Molkg^-1 | 7,03 Molkg^-1 | – | – | – | – | – | – |
| CN(CCC1CCCCCN1C)CC(=O)N1c2cc(Cl)ccc2C(=O)Nc2cccnc21 (centres unmarked) [C, 9-Chior-5,11-dihydro-11-[[[2-(1-methyl-hexahydro-1H-2-azepinyl)ethyl]methylamino]acetyl]-6H-pyrido[2,3-b][1,4]benzodiazepin-6-on-hydrochlorid] | – | – | – | – | – | 7,5 Mkg^-1 | 3.02 | 0.055 | 0.191 | 0.234 | – |
| CN(CCC1CCCCCN1C)CC(=O)N1c2ccccc2C(=O)Nc2cccnc21 (centres unmarked) [B, 5.11-Dihydro-11-[[[2-(1-methyl-hexahydro-1 H-2-azepinyi)ethyl]methylamino]acetyl]-6H-pyrido-[2,3-b][1,4]benzodiazepin6-on] | – | – | – | – | – | 7,41 Mkg^-1 | 3.39 | 0.0251 | 0.0646 | 0.269 | 6,46 Mkg^-1 |
| Cc1ccc2c(c1)C(=O)Nc1cccnc1N2C(=O)CN(C)CCC1CCCCCN1C (centres unmarked) [D, 5,11-Dihydro-8-methyl-11-[[[2-(1-methyl-hexahydro-1H-2-azepinyl)ethyl]methylamino]acetyl]-6H-pyrido[2,3-b][1,4]benzodiazepin-6-on] | – | – | – | – | – | 7,67 Mkg^-1 | 0.617 | 0.0525 | 0.135 | 0.347 | – |
| CN(CCC1CCCCN1C)CC(=O)N1c2ccccc2C(=O)Nc2cccnc21 (centres unmarked) [A] | – | – | – | – | – | 7,48 Mkg^-1 | 1.23 | 0.0178 | 0.0457 | 0.12 | 6,34 Mkg^-1 |
| CCN(CC)CC1CCCCN1CC(=O)N1c2ccccc2C(=O)Nc2cccnc21 (centres unmarked) [E, 11-[[2-[(Diethylamino)methyl]-1-piperidinyl]acetyl]-5,11-dihydro-6H-pyrido[2,3-b][1,4]-benzodiazepin-6-on, reference compound] | – | – | – | – | – | 6,42 Mkg^-1 | 10 | – | – | – | – |
